The text below walks through data of PubChem BioAssay (NCI).

The structures appear in SMILES notation. “And” between values parts separate entries of the source, which are not always exact repeats. Identical values can stand only once.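 Step 1: Grow cells in 96-well plates. Step 2: Expose to compound for 48 hours at 5 concentrations. Step 3: Interpolate endpoints linearly; if unreached, use highest concentration. GI50: concentration for 50% inhibition of growth. The concentration for full growth arrest is given as TGI.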 A value given as a limit tells only on which side of the number the result lay.

Among the test systems are EKVX NSCLC; OVCAR-8 ovarian; U251 CNS; SW-620 colon; UACC-257 melanoma; HL-60(TB) leukemia; MALME-3M melanoma; A498 renal; NCI/ADR-RES ovarian; HCT-116 colon.
Holding throughout (assay): growth of human tumour cells (NCI), 48 h

As for `CCOC(=O)c1c[nH]c2c(OCc3ccccc3)c3ccccc3c(O)c2c1=O`, the GI50 was 6.98 µM in the experiment with EKVX NSCLC; 5.6 µM in the experiment on OVCAR-8 ovarian; 5.78 µM in the experiment with U251 CNS; 7.95 µM with SW-620 colon; 2.52 µM with UACC-257 melanoma; 40.7 µM in the experiment on HL-60(TB) leukemia. In addition, the GI50 is 5.63 µM with MALME-3M melanoma, 27.3 µM in the experiment with A498 renal, 10.9 µM with NCI/ADR-RES ovarian and 3.74 µM with HCT-116 colon. For the same compound, the TGI is 52.7 µM with EKVX NSCLC; 41.3 µM in the experiment with OVCAR-8 ovarian; 25.4 µM with U251 CNS; above 100 µM with SW-620 colon; 6.63 µM in the experiment on UACC-257 melanoma; above 100 µM with HL-60(TB) leukemia. Also, the TGI is 26.6 µM in the experiment on MALME-3M melanoma, above 78.1 µM with A498 renal, above 64.7 µM with NCI/ADR-RES ovarian and above 51.8 µM in the experiment with HCT-116 colon.
As to `CSC(=S)N/N=C/c1ccccc1`, the TGI with EKVX NSCLC, in the experiment with OVCAR-8 ovarian, with U251 CNS, with SW-620 colon, in the experiment with UACC-257 melanoma and in the experiment with HL-60(TB) leukemia was above 100 µM each time. The TGI in the experiment with MALME-3M melanoma, with A498 renal, in the experiment with NCI/ADR-RES ovarian and with HCT-116 colon was above 100 µM in each case.
Turning to `CCOC(=O)c1ccc2c(c1)[n+](=O)c(C(=O)c1ccc3ccccc3c1)c(C(F)(F)F)n2[O-]`, the GI50 is 1.56 µM with EKVX NSCLC; 1.28 µM in the experiment on OVCAR-8 ovarian; 1.5 µM with U251 CNS; 1.52 µM in the experiment on SW-620 colon; 1.79 µM in the experiment with UACC-257 melanoma; 0.98 µM with HL-60(TB) leukemia. Besides, the GI50 in the experiment on MALME-3M melanoma is 1.68 µM; with A498 renal, 1.66 µM; with NCI/ADR-RES ovarian it was 1.61 µM; in the experiment on HCT-116 colon it was 0.373 µM. Besides, the TGI with EKVX NSCLC came to 3.14 µM; with OVCAR-8 ovarian it was 2.7 µM; with U251 CNS it was 2.83 µM; in the experiment with SW-620 colon it was 2.92 µM; in the experiment with UACC-257 melanoma, 3.24 µM; in the experiment with HL-60(TB) leukemia, 2.82 µM. For the same compound, the TGI with MALME-3M melanoma is 3.46 µM; with A498 renal, 3.09 µM; in the experiment with NCI/ADR-RES ovarian, 3.31 µM; in the experiment with HCT-116 colon it was 1.46 µM.
Take `O=C(CCc1nnc(-c2c(Cl)cccc2Cl)o1)c1nc2ccccc2[nH]1`: the GI50 with EKVX NSCLC was 5.48 µM; in the experiment with OVCAR-8 ovarian, 9.26 µM; with U251 CNS, 10.9 µM; with SW-620 colon, 3.46 µM; in the experiment with UACC-257 melanoma, 13.7 µM; with HL-60(TB) leukemia it was 2.23 µM. The GI50 in the experiment with MALME-3M melanoma was 13 µM; with A498 renal it was 1.53 µM; in the experiment on NCI/ADR-RES ovarian, 5.47 µM; with HCT-116 colon, 3.33 µM. Also, the TGI with EKVX NSCLC is above 100 µM; in the experiment with OVCAR-8 ovarian it was above 100 µM; with U251 CNS, 77.6 µM; in the experiment with SW-620 colon it was 16.3 µM; in the experiment with UACC-257 melanoma, 44.4 µM; in the experiment on HL-60(TB) leukemia, 19.3 µM. Also, the TGI was 52.6 µM in the experiment on MALME-3M melanoma, 10.1 µM with A498 renal, above 100 µM in the experiment on NCI/ADR-RES ovarian and 13.5 µM in the experiment on HCT-116 colon.
In the case of `CN(C)c1ccc(/C=C(\C#N)c2cc3ccccc3n2C)cc1`, the GI50 in the experiment with EKVX NSCLC was 0.636 µM; in the experiment with OVCAR-8 ovarian, 0.405 µM; in the experiment on U251 CNS, 0.357 µM; in the experiment on SW-620 colon it was 0.0898 µM; in the experiment on UACC-257 melanoma it was 2.98 µM; in the experiment on HL-60(TB) leukemia it was 0.0931 µM. Besides, the GI50 with MALME-3M melanoma is 0.133 µM; in the experiment on A498 renal, 0.0412 µM; in the experiment with NCI/ADR-RES ovarian it was 0.0895 µM; with HCT-116 colon, 0.101 µM. Moreover, the TGI in the experiment with EKVX NSCLC, with OVCAR-8 ovarian, with U251 CNS, in the experiment on SW-620 colon, in the experiment on UACC-257 melanoma and in the experiment with MALME-3M melanoma was above 100 µM each time. The results for the TGI in the experiment with A498 renal, with NCI/ADR-RES ovarian and with HCT-116 colon were 0.604 µM, above 100 µM and above 100 µM, respectively.
In the case of `CC1(C)CC(=O)C2=C(C1)NC(SSC1=C(C#N)C(c3ccc(Br)cc3)C3=C(CC(C)(C)CC3=O)N1)=C(C#N)C2c1ccc(Br)cc1` (centres undefined), the GI50 in the experiment with EKVX NSCLC is above 150 µg/mL; in the experiment with OVCAR-8 ovarian, 48.6 µg/mL; in the experiment with U251 CNS it was above 150 µg/mL; in the experiment with SW-620 colon it was 29.3 µg/mL; in the experiment with UACC-257 melanoma, above 150 µg/mL; with HL-60(TB) leukemia, 31.2 µg/mL. Also, the GI50 was 35.8 µg/mL in the experiment with MALME-3M melanoma, above 150 µg/mL with A498 renal, 28.9 µg/mL in the experiment with NCI/ADR-RES ovarian and 89.8 µg/mL in the experiment with HCT-116 colon. Further, the TGI in the experiment with EKVX NSCLC was > 100 µM and 150 µg/mL; in the experiment on OVCAR-8 ovarian, > 100 µM and 150 µg/mL; in the experiment with U251 CNS, > 100 µM and 150 µg/mL; in the experiment on SW-620 colon, > 100 µM and 56.1 µg/mL; with UACC-257 melanoma it was > 100 µM and 150 µg/mL; in the experiment on HL-60(TB) leukemia it was > 100 µM and 77.1 µg/mL. The TGI was > 100 µM and 98.7 µg/mL in the experiment on MALME-3M melanoma; > 100 µM and 150 µg/mL in the experiment on A498 renal; > 100 µM and 64.1 µg/mL in the experiment with NCI/ADR-RES ovarian; > 100 µM and 150 µg/mL with HCT-116 colon.
As to `C=C1C(=O)O[C@H]2[C@H]1CC/C(COC(=O)/C=C\C(=O)NCc1ccc(Cn3c(=O)sn(-c4ccc(OC)cc4)c3=O)cc1)=C\CC[C@@]1(C)O[C@@H]21`, the GI50 was 0.773 µM in the experiment with EKVX NSCLC; 0.755 µM with OVCAR-8 ovarian; 0.834 µM in the experiment on U251 CNS; 0.272 µM with SW-620 colon; 0.85 µM in the experiment with UACC-257 melanoma; 0.876 µM in the experiment on HL-60(TB) leukemia. Moreover, the GI50 in the experiment on MALME-3M melanoma was 0.806 µM; in the experiment on A498 renal, 0.799 µM; in the experiment on NCI/ADR-RES ovarian, 1.11 µM; in the experiment with HCT-116 colon, 0.171 µM. In addition, the TGI was determined as 1.51 µM in the experiment with EKVX NSCLC; 2.62 µM in the experiment on OVCAR-8 ovarian; 2.19 µM in the experiment on U251 CNS; 1 µM in the experiment on SW-620 colon; 1.86 µM with UACC-257 melanoma; 3.74 µM in the experiment with HL-60(TB) leukemia. The TGI is 1.56 µM in the experiment with MALME-3M melanoma, 1.57 µM in the experiment on A498 renal, 4.32 µM in the experiment with NCI/ADR-RES ovarian and 0.755 µM in the experiment on HCT-116 colon.
On to `Cc1ccc(Cl)cc1Nc1nc(C(F)(F)F)ccc1C(=O)N/N=C/c1c(Cl)cccc1Cl`, for which the GI50 with EKVX NSCLC was 0.507 µM; in the experiment with OVCAR-8 ovarian, 0.85 µM; with U251 CNS, 0.471 µM; in the experiment on SW-620 colon, 0.475 µM; in the experiment on UACC-257 melanoma, 2.49 µM; with HL-60(TB) leukemia, 0.863 µM. Moreover, the GI50 is 1.69 µM with MALME-3M melanoma, 0.929 µM in the experiment with A498 renal, 0.522 µM in the experiment with NCI/ADR-RES ovarian and 0.355 µM in the experiment on HCT-116 colon. Moreover, the TGI in the experiment with EKVX NSCLC was 3.71 µM; in the experiment on OVCAR-8 ovarian it was above 50.3 µM; in the experiment on U251 CNS it was 5.78 µM; with SW-620 colon, 12.2 µM; in the experiment with UACC-257 melanoma, 7.69 µM; in the experiment with HL-60(TB) leukemia, 3.36 µM. Moreover, the TGI came out at 5.44 µM with MALME-3M melanoma, 5.61 µM with A498 renal, 6.77 µM in the experiment on NCI/ADR-RES ovarian and 1.58 µM with HCT-116 colon.
`CCCN(CCC)c1ccc(C=O)cc1`: the GI50 in the experiment with EKVX NSCLC is 30.2 µM; in the experiment on OVCAR-8 ovarian, 61.9 µM; in the experiment on U251 CNS it was 42 µM; in the experiment on SW-620 colon, 54.7 µM; with UACC-257 melanoma, 35 µM; in the experiment with HL-60(TB) leukemia, 27 µM. The GI50 is above 81.2 µM with MALME-3M melanoma, 1.81 µM in the experiment with A498 renal, 56.3 µM in the experiment with NCI/ADR-RES ovarian and 39.7 µM with HCT-116 colon. The TGI with EKVX NSCLC was above 100 µM; in the experiment with OVCAR-8 ovarian, above 100 µM; with U251 CNS, above 100 µM; with SW-620 colon it was above 100 µM; in the experiment on UACC-257 melanoma, 98.2 µM; in the experiment with HL-60(TB) leukemia, above 84 µM. For the same compound, the TGI in the experiment on MALME-3M melanoma was above 100 µM; with A498 renal, 4.15 µM; with NCI/ADR-RES ovarian it was above 100 µM; in the experiment on HCT-116 colon, above 100 µM.
`CCOC(=O)C1=C(N)Oc2c(sc3c(C)cccc23)C1c1ccc(Cl)cc1` (centres undefined): the GI50 was 3.75 µM in the experiment on EKVX NSCLC; 4.24 µM in the experiment with OVCAR-8 ovarian; 3.46 µM in the experiment with U251 CNS; 3.64 µM with SW-620 colon; 13.1 µM with UACC-257 melanoma; 2.56 µM in the experiment on HL-60(TB) leukemia. Moreover, the GI50 is 5.19 µM with MALME-3M melanoma, 1 µM in the experiment with A498 renal, 0.952 µM with NCI/ADR-RES ovarian and 2.83 µM in the experiment on HCT-116 colon. Further, the TGI in the experiment with EKVX NSCLC is 17.1 µM; with OVCAR-8 ovarian, 20.7 µM; with U251 CNS, 14.8 µM; in the experiment on SW-620 colon, 16.8 µM; in the experiment with UACC-257 melanoma, 30.4 µM; in the experiment on HL-60(TB) leukemia, 7.81 µM. Further, the TGI is 19.6 µM with MALME-3M melanoma, 7.09 µM in the experiment with A498 renal, 7.18 µM with NCI/ADR-RES ovarian and 12.1 µM in the experiment with HCT-116 colon.
As to `C[N+](C)(C)CCC(=O)N1C/C(=C\c2ccccc2)C(=O)/C(=C/c2ccccc2)C1`, the TGI was found to be 35.9 µM in the experiment on EKVX NSCLC; 8.44 µM in the experiment on OVCAR-8 ovarian; 6 µM with U251 CNS; 2.68 µM with SW-620 colon; 28.2 µM with UACC-257 melanoma; 9.44 µM in the experiment on HL-60(TB) leukemia. Further, the TGI with MALME-3M melanoma came out at 30.4 µM; in the experiment with A498 renal, 35.3 µM; in the experiment on NCI/ADR-RES ovarian it was 3.3 µM; in the experiment with HCT-116 colon, 2.98 µM.
